Test [1] deals with HEK293 cells expressing SSTR3-mlCNBD-FRET. Briefly: FRET change in HEK293 cells expressing SSTR3-mlCNBD-FRET. It counts as cell-based. The conditions noted are these: 20 μM isoproterenol, n = 9. As for the experimental part: Cells were cultured in Ibidi μ-slides (Ibidi, Planegg, Germany) attached to a home-built gravity-flow perfusion system. Measurements were performed using a CellR live-cell imaging system (Olympus) with 20x objective. […] Isoproterenol and SNP, Sigma-Aldrich). FRET was recorded by exciting cerulean at 436 nm and measuring the emission of cerulean and citrine at 470 nm and 535 nm, respectively. The change in FRET (emissioncerulean/emissioncitrine) was calculated, corrected for bleed-through, normalized to the baseline, and plotted versus time. The full-length mouse SSTR3 cloned into pEGFP-N1 was kindly provided by Greg Pazour (UMass Medical School). For expression of SSTR3-tagged mlCNBD-FRET, the SSTR3 coding sequence was amplified by a recombinant PCR reaction to delete the internal NheI site. The fragment was subcloned into […].

In test [2] the test system is HEK293 cells expressing mlCNBD-FRET. Briefly: cAMP/cGMP dynamics (FRET ratio) in HEK293 cells expressing mlCNBD-FRET after drug stimulation. The conditions noted are these: 20 µM isoproterenol, n = 9. It counts as cell-based. The procedure:
Cells were cultured in Ibidi μ-slides (Ibidi, Planegg, Germany) attached to a home-built gravity-flow perfusion system. Measurements were performed using a CellR live-cell imaging system (Olympus) with 20x objective. Cells were perfused with extracellular solution (ES: 120 mM NaCl, 5 mM KCl, 2 mM MgCl2, 2 mM CaCl2, 10 mM HEPES, 10 mM glucose, pH 7.4) to determine the basal FRET ratio and then the stimulus was added (NKH477 and IBMX, Tocris, Wiesbaden, Germany; Isoproterenol and SNP, Sigma-Aldrich). FRET was recorded by exciting cerulean at 436 nm and measuring the emission of cerulean and citrine at 470 nm and 535 nm, respectively. The change in FRET (emissioncerulean/emissioncitrine) was calculated, corrected for bleed-through, normalized to the baseline, and plotted versus time.
For population measurement using a spectrofluorometer (Quantamaster 40, PTI), HEK293 cells were trypsinized at 37°C for 5 min and washed twice with ES. […] Fluorescence spectra at steady-state were recorded with excitation at 430 nm and 0.5 s integration time. For time-resolved measurements, cells were excited at 430 nm and emission was recorded at 470 nm (cerulean) and 530 nm (citrine) at an acquisition frequency of 1 Hz. The change in FRET (emissioncerulean/emissioncitrine) was calculated, corrected for bleed-through, normalized to the baseline, and plotted versus time.

The subject of test [3] is sperm flagellum (mlCNBD-FRET sperm). Briefly: Dual-view FRET imaging of cAMP dynamics in the flagellum of mlCNBD-FRET sperm. It counts as cell-based, mouse.
The subject of a further test is wild-type sperm. Description: Intracellular pH measurement with BCECF in wild-type sperm. It counts as cell-based, mouse.
Another test deals with sperm. The conditions noted are these: 25 mM bicarbonate, after rapid rise at 1 min.
The subject of the next test is T1, tmAC.
T1 construct: endogenous in HEK293 cells, isoform not specified
Briefly: Maximal cAMP-dependent FRET ratio of mlCNBD-FRET in HEK293 cells after stimulation of endogenous adenylate cyclases with increasing NKH477 concentrations. It counts as cell-based. The conditions noted are these: SD, n = 4.

A further test deals with T2, mlCNBD-FRET (Mesorhizobium japonicum, UniProt Q98GN8).
T2 construct: gene mll3241; CNBD (Phe223 to Arg349) with citrine fused to N-terminus and cerulean to C-terminus, C-terminal His10 tag
T2 sequence (Q98GN8 223-349): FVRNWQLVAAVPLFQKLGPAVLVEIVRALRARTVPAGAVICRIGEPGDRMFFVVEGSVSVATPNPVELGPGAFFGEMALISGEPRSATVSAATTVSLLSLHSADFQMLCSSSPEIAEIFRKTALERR
Briefly: Spectrofluorometric titration of 1 uM purified sensor with cGMP, cerulean/citrine FRET ratio at 430 nm excitation, single-site fit. It counts as binding. The conditions noted are these: SD, n = 6.

Setting [4] is: perfusion with 25 mM bicarbonate, n = 7.
[5] abbreviates: stopped-flow, 10 mM NH4Cl or 25 mM bicarbonate.

Where a name gives a salt, the structure may show the parent alone. Read-outs that look alike come from different tables or passages of the source. Where only a bound is given, the exact number is not on record here.

As for `CC(C)NCC(O)c1ccc(O)c(O)c1` (centres unmarked) [isoproterenol], the “increase of FRET ratio” value in test [1] is on record as “approximately 25%”. The “change of ΔF” value in test [2] was 47 ± 3%.
Consider `O=C([O-])O.[Na+]` [bicarbonate, NaHCO3], for which, in test [3] (setting [4]), the “cAMP increase (FRET) in midpiece” value is on record as 26 ± 3% and the “cAMP increase (FRET) in principal piece” value is listed as 22 ± 10%. Further, in the test with mlCNBD-FRET sperm (25 mM bicarbonate, 10 μM [Ca2+]o), the “change in cAMP (FRET)” value was “did not change the cAMP concentration”. Moreover, the “time to steady-state of free cAMP increase” value with mlCNBD-FRET sperm (25 mM bicarbonate, 2 mM Ca2+ buffer) was “about 5 min”. Moreover, the “change in cAMP (FRET)” value in the test with mlCNBD-FRET sperm (bicarbonate at 2.2 nM [Ca2+]o (10 μM Ca2+/1 mM BAPTA)) was “did not further enhance cAMP levels”. The “change in pHi” value with wild-type sperm (setting [5]) was “did not dramatically change pHi”. In addition, the “time for total cAMP levels to decline to basal levels” value with sperm is ≤ 10 min.
For orientation: EC50 means the midpoint of the concentration-response curve. On to `C=CC1(C)CC(=O)C2(O)C(C)(O1)C(OC(C)=O)C(OC(=O)CCN(C)C)C1C(C)(C)CCC(O)C12C` (centres unmarked) [NKH477, colforsin daropate hydrochloride (water-soluble forskolin derivative)], for which the EC50 in the test on tmAC worked out at 3600 nM.
In general, Kd refers to the free concentration of one partner at which half of the binding sites on the other are occupied at equilibrium, for simple one-to-one binding. On to `Nc1nc2c(ncn2[C@@H]2O[C@@H]3COP(=O)(O)O[C@H]3[C@H]2O)c(=O)[nH]1` [cGMP, cyclic guanosine 3',5'-monophosphate], for which the Kd at mlCNBD-FRET was 504 nM.
On to `O=C([O-])CN(CC(=O)[O-])c1ccccc1OCCOc1ccccc1N(CC(=O)[O-])CC(=O)[O-].[K+].[K+].[K+].[K+]` [BAPTA, 1,2-Bis(2-aminophenoxy)ethane-N,N,N′,N′-tetraacetic acid tetrapotassium salt], for which the “change in pHi” value in the test with wild-type sperm (spectrofluorometer, 3 mM BAPTA reducing [Ca2+]o to 443 nM) is “did not change pHi”.
Consider `Cl.N` [NH4Cl], for which, in the test with wild-type sperm (setting [5]), the “change in pHi” value is listed as “pronounced alkalization”.
Turning to `C=CC1(C)CC(=O)C2(O)C(C)(O1)C(OC(C)=O)C(OC(=O)CCN(C)C)C1C(C)(C)CCC(O)C12C` (centres unmarked) [NKH477], the “cAMP change (FRET) in midpiece or principal piece” value in test [3] (perfusion with 40 μM NKH477, n = 3) stood at 0 ± 3%.

For the origin of these results see PMC4811770 (eLife, 2016).
